Where only a bound is given, the exact number is not on record here.

Among the data in ChEMBL document CHEMBL2311472, “Discovery and optimization of potent broad-spectrum arenavirus inhibitors derived from benzimidazole and related heterocycles” (Bioorg Med Chem Lett, 2013) are EC50 values, retold here.

The first assay concerns Machupo mammarenavirus. The assay can be described thus: Antiviral activity against Machupo virus. In kind it is functional. To be noted: Mammarenavirus machupoense.
`COc1ccc(-n2cnc3cc(NCc4ccc(C(C)C)cc4)ccc32)cc1` yielded an EC50 of 3.1 nM.
The compound `CCOc1ccc(-c2c[nH]c3cc(NCc4ccc(CC)cc4)ccc23)cc1` displayed an EC50 of 40 nM.
Still for that read-out and setting: next, `CCOc1ccc(-n2nnc3cc(NCc4ccc(CC)cc4)cnc32)cc1`: 81 nM; `CCOc1ccc(-n2cnc3cc(NCc4ccc(CC)cc4)cnc32)cc1`: 28 nM.

A further assay concerns Junin virus. The assay can be described thus: Antiviral activity against Junin virus. In kind it is functional, organism-based. The note with it: Mammarenavirus juninense.
Regarding `COc1ccc(-n2cnc3cc(NCc4ccc(C(C)C)cc4)ccc32)cc1`, the 50% effective concentration (EC50) was 0.62 nM.
Turning to `CCOc1ccc(-c2c[nH]c3cc(NCc4ccc(CC)cc4)ccc23)cc1`, it took 12 nM to reach a half-maximal effect (EC50).
Same read-out and setting: next, `CCOc1ccc(-n2nnc3cc(NCc4ccc(CC)cc4)cnc32)cc1`: 14 nM.
Turning to `CCOc1ccc(-n2cnc3cc(NCc4ccc(CC)cc4)cnc32)cc1`, the response was half-maximal at 7.9 nM (EC50).

Another assay has as its system Guanarito virus. Description: Antiviral activity against Guanarito virus. In kind it is functional. To be noted: Mammarenavirus guanaritoense.
Take `COc1ccc(-n2cnc3cc(NCc4ccc(C(C)C)cc4)ccc32)cc1`: the concentration giving a half-maximal response (EC50) is 0.44 nM.
The same measure, in the same setting: next, `CCOc1ccc(-n2nnc3cc(NCc4ccc(CC)cc4)cnc32)cc1`: 7.7 nM; `CCOc1ccc(-n2cnc3cc(NCc4ccc(CC)cc4)cnc32)cc1`: 3.5 nM.

Another assay relates to Lassa virus. The assay can be described thus: Antiviral activity against Lassa virus by pseudo-type antiviral assay. In kind it is functional, organism-based. To be noted: Mammarenavirus lassaense.
`CCOc1ccc(-n2c(O)nc3cc(NCc4ccc(CC)cc4)ccc32)cc1` returned an EC50 of 1800 nM. This counts as single-digit micromolar.
Regarding `CCc1ccc(CNc2cnc3c(c2)ncn3-c2ccc(NC(C)=O)cc2)cc1`, the EC50 was 11 nM.
On the same count and under the same terms, next, `CCOc1ccc(-n2c(N)nc3cc(NCc4ccc(CC)cc4)ccc32)cc1`: 29 nM.
Same read-out and setting: the figure for `CCOc1ccc(-n2c(C)nc3cc(NCc4ccc(CC)cc4)ccc32)cc1` is 1.9 nM; for `COc1ccc(-n2cnc3cc(NCc4ccc(C(C)C)cc4)ccc32)cc1` it is 1.4 nM; for `CCOc1ccc(-n2ccc3cc(NCc4ccc(CC)cc4)cnc32)cc1` it is 25 nM.
On the same count and under the same terms, the figure for `CCOc1ccc(-n2cnc3cc(NCc4ccc(CC)c(CN)c4)cnc32)cc1` is 26 nM; for `CCOc1ccc(-n2cnc3cc(NCc4ccc(CC)cc4)cc(C(=O)OC)c32)cc1` it is 220 nM; for `CCOc1ccc(-n2cnc3cc(/N=C/c4ccc(CC)cc4)cnc32)cc1` it is 4300 nM.
With `CCOc1ccc(-n2c(C#N)nc3cc(NCc4ccc(CC)cc4)ccc32)cc1`, a half-maximal effect (EC50) was put at 1.6 nM. Compared with the last compound, the EC50 is about 2700-fold lower.
Still for that read-out and setting: next, `CCOc1ccc(-n2cnc3cc(NCc4ccc(CC)cc4)cnc32)c(CN)c1`: 1500 nM; `CCOc1ccc(Cn2cnc3cc(NCc4ccc(CC)cc4)cnc32)cc1`: 1600 nM; `CCOc1ccc(-n2cnc3cc(NCc4ccc(CC)cc4)cnc32)cc1N(C)C`: 250 nM.
`CCCc1nc2cc(NCc3ccc(CC)cc3)ccc2n1-c1ccc(OCC)cc1` had a half-maximal effective concentration (EC50) of 170 nM.
On to `CCOc1ccc(-n2cnc3cc(NCc4ccc(CC)cc4)ccc32)cc1`, for which the EC50 was 1.5 nM.
Still for that read-out and setting: next, `CCc1ccc(CNc2cnc3c(c2)ncn3-c2ccc(OCCCO)cc2)cc1`: 13 nM; `CCOc1ccc(-n2cnc3cc(NCCCc4ccc(CC)cc4)cnc32)cc1`: 210 nM; `CCOc1ccc(-n2c(C(N)=O)nc3cc(NCc4ccc(CC)cc4)ccc32)cc1`: 9.2 nM.
With `CCOc1ccc(-n2c(C(=O)O)nc3cc(NCc4ccc(CC)cc4)cnc32)cc1`, it took 0.16 nM to reach a half-maximal effect (EC50). This EC50 is about 57-fold lower than that of the compound before.
Take `CCOc1ccc(-n2c(C(=O)O)nc3cc(NCc4ccc(CC)cc4)ccc32)cc1`: the EC50 turned out to be 1.5 nM.
Still for that read-out and setting: the figure for `CCOc1ccc(-c2c[nH]c3cc(NCc4ccc(CC)cc4)ccc23)cc1` is 13 nM.
The compound `CCOc1ccc(-n2ccc3cc(NCc4ccc(CC)cc4)ccc32)cc1` came in with an EC50 of 69 nM.
For `CCOc1ccc(-n2cnc3cc(NCc4ccc(CC)cc4)cnc32)cn1`, the midpoint of the response, the EC50, lay at 9 nM. Compared with the last compound, the EC50 is about 7.7-fold lower.
On the same count and under the same terms, the figure for `CCOc1ccc(-n2nnc3cc(NCc4ccc(CC)cc4)cnc32)cc1` is 0.87 nM; for `CCOc1ccc(-n2c(C(N)=O)nc3cc(NCc4ccc(CC)cc4)cnc32)cc1` it is 4.4 nM; for `CCOc1ccc(-n2cnc3cc(NCc4ccc(CC)cc4)cnc32)nc1` it is 0.98 nM.
Same read-out and setting: the figure for `CCc1ccc(CNc2cnc3c(c2)ncn3-c2ccc(OCCN(C)C)cc2)cc1` is 80 nM; for `CCc1ccc(CNc2cnc3c(c2)ncn3-c2ccc(O)cc2)cc1` it is 19 nM; for `CCOc1ccc(-c2cnc3cc(NCc4ccc(CC)cc4)ccn23)cc1` it is 9.3 nM.
On the same count and under the same terms, next, `CCOc1ccc(-n2cnc3cc(NCc4ccc(CC)cc4)cc(C(=O)O)c32)cc1`: above 50000 nM; `CCOc1ccc(-n2cnc3cc(NCCc4ccc(CC)cc4)cnc32)cc1`: 65 nM; `CCOc1ccc(-n2cnc3nc(NCc4ccc(CC)cc4)ccc32)cc1`: 6.8 nM.
As to `CCOc1ccc(-n2cnc3cc(NCc4ccc(CC)cc4)cc(N)c32)cc1`, the midpoint of the response, the EC50, lay at 620 nM. This EC50 lies about 91-fold higher than the previous one.
The same measure, in the same setting: next, `CCOc1ccc(-n2nnc3cc(NCc4ccc(CC)cc4)ccc32)cc1`: 6.1 nM.
The compound `CCOc1ccc(-n2cnc3cc(NCc4ccc(CC)c(N(C)C)c4)cnc32)cc1` had a half-maximal effective concentration (EC50) of 5.9 nM.
The same measure, in the same setting: next, `COc1ccc(-n2ncc3cc(NCc4ccc(C(C)C)cc4)ccc32)cc1`: 130 nM; `CCOc1ccc(-n2cnc3cc(NCc4ccc(CC)cc4)cnc32)cc1CN`: 58 nM.
Same read-out and setting: next, `CCOc1ccc(-n2cnc3cc(NCc4ccc(CC)cc4)cnc32)cc1`: 0.16 nM.

For the next assay, the system named is Sabia virus. The assay can be described thus: Antiviral activity against Sabia virus. In kind it is functional.
Details: not given
The compound `COc1ccc(-n2cnc3cc(NCc4ccc(C(C)C)cc4)ccc32)cc1` had an EC50 of 21 nM. This lies in the double-digit nanomolar range.
On the same count and under the same terms, the figure for `CCOc1ccc(-c2c[nH]c3cc(NCc4ccc(CC)cc4)ccc23)cc1` is 3.9 nM; for `CCOc1ccc(-n2nnc3cc(NCc4ccc(CC)cc4)cnc32)cc1` it is 93 nM; for `CCOc1ccc(-n2cnc3cc(NCc4ccc(CC)cc4)cnc32)cc1` it is 54 nM.

Usually EC50 stands for the concentration that produces a half-maximal response. Lower therefore signals an effect from little substance.
